From ChEMBL document CHEMBL3102707, “Synthesis and structure-activity relationship of 2-adamantylmethyl tetrazoles as potent and selective inhibitors of human 11β-hydroxysteroid dehydrogenase type 1 (11β-HSD1)” (Bioorg Med Chem Lett, 2014)

Legend:
[1] = Drug level in mouse liver at 10 mg/kg, po after 3 hrs; type: ADME, organism-based; set-up: dose 10 mg/kg, route oral; settings: read-out: Drug uptake
[2] = Plasma concentration in mouse at 10 mg/kg, po after 3 hrs; type: ADME, organism-based; set-up: dose 10 mg/kg, route oral
[3] = Drug level in mouse adipose tissue at 10 mg/kg, po after 3 hrs; type: ADME, organism-based; set-up: dose 10 mg/kg, route oral; settings: read-out: Drug uptake
[4] = Aqueous solubility of the compound; type: physicochemical; settings: buffer

Structure (SMILES) | concentration at 3 h [1] [nM] | concentration at 3 h [2] [nM] | concentration at 3 h [3] [nM] | solubility [4]
OC1C2CC3CC1CC(C2)C3(Cc1nnn[nH]1)c1ccc(-c2ccc(F)cc2)cc1 (single isomer, unassigned; enantiomer 1) | 13900 | 1560 | 160 | 
c1ccc(-c2ccc(C3(Cc4nnn[nH]4)C4CC5CC(C4)CC3C5)cc2)cc1 (configuration not stated) |  |  |  | soluble
N#Cc1ccc(-c2ccc(C3(Cc4nnn[nH]4)C4CC5CC3CC(C4)C5O)cc2)cc1 (racemic) | 23700 | 820 | < 75 | 
